One test deals with T1, HLA A2 (Homo sapiens, UniProt P04439, D140Y/D185E/D98H/E176V/E277Q/G131W/G231S/I119V/I121R/I166T/I218V/L300P/L318F/N151K/N90K/P208A/P217A/Q86G/Q94H/R138H/R169H/T345S).
T1 construct: endogenous in cells; host or cells: T2 cells
The format is cell-based. Particulars: HLA A2 on T2 cells; relative increase in HLA expression vs no peptide at 26° C.

For test [1], the system named is PBMC from healthy HCMV seropositive donors. Nature of the test: IFN-γ ELISPOT assay. Type of test: cell-based, human. The note with it: peptide 10 μg/ml. The method, then: ELISPOT assay was used to assess whether stimulation of PBMC from a large panel of seropositive donors with HCMV peptides could induce IFN-γ expression in T cells. Briefly, a 96-well nitrocellulose plate (Multiscreen, Millipore) was coated overnight at 4° C. with mouse monoclonal antibody anti-IFN-γ IgG1 (10 μg/ml; Mabtech Nacka, Sweden). The plate was then washed six times in Phosphate Buffered Saline (PBS) and blocked for 1 hour at 37° C. with PBS supplemented with 5% FCS. The blocking solution was removed and PBMC from healthy HCMV seropositive donors were added at a concentration of 2.5×10^5 cells per well in growth medium. These cells were incubated for 18 h at 37° C. in a 5% CO2 atmosphere in the presence of synthetic peptides from HCMV antigens (10 μg/ml). After incubation, the plate was washed three times with PBS supplemented with 0.05% Tween, followed by three washes with PBS alone. Biotinylated anti-IFN-γ (Mabtech, Nacka Sweden) detection antibody was added to each well at a final concentration of 1 μg/ml in PBS. The plates were incubated at room temperature in the dark for 4 h and then washed, as described above. Streptavidin-Alkaline phosphatase (Sigma) was added to each well at a final concentration of 1 μg/ml in PBS and incubated at room temperature in the dark for 2 h. After a final wash with PBS, the substrate, 5-bromo-4-chloro-3-indolyl phosphate and nitro blue tetrazolium, was added to each well and the plates incubated for 30 min at RT. Cells that produced IFN-γ in response to the presence of peptide were detected as purple spots on the nitrocellulose membrane of each well. The spots were counted automatically using a closed-circuit camera (CCD) and ImagePro image analysis software or automated ELISPOT reader (AID, Germany). The T cell precursor frequency for each peptide was based on the total number of PBMC in the well and the number of peptide-specific spots per well, over an average of 3 wells. The number of peptide-specific spots was also calculated by subtracting the negative control values, which consisted of PBMC without peptide (an average of 3 wells), from the test wells.
To determine whether memory CTL responses against the predictive HCMV potential epitopes could be detected in healthy seropositive virus carriers, we used the ELISPOT assay, which allows rapid identification of CTL epitopes without prolonged in vitro culture.
We tested epitopes that were restricted for HLA A1, A3, A24, A26, B7, B8, B27, B35 and B44 in ELISPOT assays, to determine whether memory T cell responses could be detected in healthy HLA-matched virus carriers. PBMC from a cohort of healthy virus carriers (Table 2) were stimulated with individual peptides and the cells that produced IFN-γ were detected. CTL epitopes that were restricted through either HLA A1, A3, A24, A26, B7, B8 or B27, were identified.
Thus, a total of 450 peptides were produced. ELISPOT assays were used to determine whether ex vivo memory T cell responses could be detected in a cohort of 14 healthy virus carriers (Table 2). PBMC were stimulated with individual peptides and the cells that produced IFN-γ were detected.

Experimental findings from patent US7524503B2, “Human cytomegalovirus (HCMV) cytotoxic T cell epitopes, polyepitopes compositions comprising same and diagnostic and prophylactic and therapeutic uses therefor” (priority 2001, dated 2009) are described below.

“YLFSLVVLV (human cytomegalovirus US3 CTL epitope peptide)”: in the test with HLA A2, the “MSE (MHC stabilization efficiency)” value is given as “+ (+ = 51-99%)”. Besides, the “ELISPOT Responses (SFC/10^6 PBMC)” value in test [1] (donor ten) is reported as “WS(73) SFC/10^6 PBMC”.
Consider “LMLLKNGTV (human cytomegalovirus gH CTL epitope peptide)”, for which the “MSE (MHC stabilization efficiency)” value with HLA A2 is given as “− (− = 0-50%)”. The “ELISPOT Responses (SFC/10^6 PBMC)” value in test [1] (donor seventeen) is “CJ(80) SFC/10^6 PBMC”.
Regarding LMNGQQIFL, the “MSE (MHC stabilization efficiency)” value in the test with HLA A2 is “++ (++ = 100-199%)”. Moreover, the “ELISPOT Responses (SFC/10^6 PBMC)” value is 217 SFC/10^6 PBMC in test [1] (donor fifteen) and 751 SFC/10^6 PBMC in test [1] (donor ten).
In the case of “RIWCLVVCV (human cytomegalovirus gB CTL epitope peptide)”, the “MSE (MHC stabilization efficiency)” value with HLA A2 is reported as “− (− = 0-50%)”. The “ELISPOT Responses (SFC/10^6 PBMC)” value in test [1] (donor fifteen) was determined as 105 SFC/10^6 PBMC; in test [1] (donor one), 108 SFC/10^6 PBMC.
Turning to “LLNCAVTKL (human cytomegalovirus pp50 CTL epitope peptide)”, in the test with HLA A2, the “MSE (MHC stabilization efficiency)” value is on record as “++ (++ = 100-199%)”. Also, in test [1] (donor delta), the “ELISPOT Responses (SFC/10^6 PBMC)” value is reported as “SE(59) SFC/10^6 PBMC”.
For ILARNLVPM the same measures were “++ (++ = 100-199%)” and “SE(170) SFC/10^6 PBMC”.
With “ALVNAVNKL (human cytomegalovirus pp150 CTL epitope peptide)”, the “MSE (MHC stabilization efficiency)” value with HLA A2 was “++ (++ = 100-199%)”. The “ELISPOT Responses (SFC/10^6 PBMC)” value in test [1] (donor ten) was “WS(60) SFC/10^6 PBMC”.
On to “KMSVRETLV (human cytomegalovirus pp150 CTL epitope peptide)”, for which the “MSE (MHC stabilization efficiency)” value with HLA A2 is recorded as “++ (++ = 100-199%)”. Further, in test [1] (donor delta), the “ELISPOT Responses (SFC/10^6 PBMC)” value is listed as “SE(69) SFC/10^6 PBMC”.
